We go through one molecule from patent publication US12150927B2, “Use of cannabidiolic acid in the treatment of autism spectrum disorder and associated disorders” (GW Research Limited, priority 2016, dated 2024).

The subject of one test is VPA rats. The test can be described thus: Short-term memory, novel object recognition test, rat VPA model. It counts as in vivo, Sprague-Dawley rats. Conditions: FIG. 2C. The protocol:
Pregnant Sprague-Dawley rats (Charles River, Calco, Italy), received a single intraperitoneal injection of 500 mg/kg sodium valproate on the 12.5 day after conception, and control females were injected with physiological saline at the same time. Sodium valproate (Sigma Aldrich, Milan, IT) was dissolved in saline at a concentration of 250 mg/ml.
CBDA was dissolved in ethanol, cremophor and saline (1:1:18). Symptomatic treatment with CBDA at doses of 2 and 20 mg/kg/day i.p. was performed starting from PND 34 (early adolescence) till 56 (early adulthood), both in male and female offspring of dams injected with VPA 500 mg/kg (or vehicle) on day 12.5 after conception. At PND 56, a series of behavioural tests was performed in order to assess the effect of chronic CBDA on sociability, social novelty, short-term memory, locomotion and stereotyped/repetitive behaviours.
Short-term memory: The experimental apparatus used for the object recognition test was an open-field box (43×43×32 cm) made of Plexiglas, placed in a dimly illuminated room. The experiment was performed and analysed as previously described (Zamberletti et al, 2014). Animals performed each test individually.
Each animal was placed in the arena and allowed to explore two identical previously unseen objects for 5 minutes (familiarization phase). After an inter-trial interval of 3 minutes one of the two familiar objects was replaced by a novel, previously unseen object and rats were returned to the arena for the 5-minute test phase. During the test phase the time spent exploring the familiar object (Ef) and the new object (En) was videotaped and recorded separately by two observers blind to the treatment groups and the discrimination index was calculated as follows: [(En−Ef)/(En+Ef)]×100.

The test system of a further test is MeCP2 KO mice. The test can be described thus: Novel Object Recognition (NOR) test, short- and long-term memory, mouse model of Rett syndrome. In kind it is in vivo. Here is the method:
Furthermore, the efficacy of CBDA in reverting/attenuating the short- and long-term memory deficits present in these mice was evaluated. The Novel Object Recognition (NOR) test was performed before the starting of the treatment Post Natal Day 28 (PND 28), at PND 41 when the first motor symptoms appear and at PND 56 and 66 when the disease is fully manifested.
At PND 28, 41, 56 and 66 the effect of CBDA on short- and long-term memory deficits was investigated through the Novel Object Recognition (NOR) test.
The experiment was performed as previously described (Zamberletti E. et al. 2014 and Kruk-Stomka M. et al. 2014).
The experimental apparatus used for the Novel Object Recognition test was an open-field box (43×43×32 cm) made of Plexiglas, placed in a dimly illuminated room. Animals performed each test individually.
Briefly, each animal was placed in the arena and allowed to explore two identical previously unseen objects for 10 minutes (familiarization phase). After an inter-trial interval of 30 minutes and 24 hours one of the two familiar objects was replaced by a novel, previously unseen object and mice were returned to the arena for the 10-minute test phase.
During the test phase the time spent exploring the familiar object (Ef) and the new object (En) was recorded separately by two observers blind to the groups and the discrimination index was calculated as follows: [(En−Ef)/(En+Ef)]×100.

In the next test the test system is Ube3am-/p+ (AS) mice. The test is described as follows: Novel object recognition, mouse model of Angelman syndrome. In kind it is in vivo. Conditions: CBDA 20 mg/kg i.p., age 7-8 weeks, vs AS vehicle. The protocol: Heterozygous mice with maternal deficiency of Ube3A (Ube3am−/p+) and wild type (Ube3am+/p+) were purchased from The Jackson Laboratory (Jackson code: B6.129S7-Ube3a tm1Alb/J) and maintained in a C57BL/6 background.
Drugs were dissolved in 1:1:18 ethanol:cremophor:0.9% saline, for intraperitoneal (i.p.) administration. Drug treatment was performed daily for 35 days. CBDA was administered at 20 mg/kg.
Novel Object Recognition: The novel object recognition assesses recognition memory in mice. The experiment started with the habituation period, during which mice were allowed to freely explore for 1 hour the apparatus which consists of a rectangular open box (40×30×30 cm width×length×height) made of grey polyvinyl chloride (PVC) illuminated by a dim light. The day after each mouse was allowed to explore two identical objects positioned in the back left and right corners for 5 min (acquisition). A video camera recorded the time spent on exploration of each object. […] The behaviour of mice was analyzed by an observer blind to the treatment. Data are expressed as percentage of recognition index (RI %), which was calculated as the percentage of the time spent exploring the novel object/time spent exploring the novel object+time spent exploring the familiar object×100.

As for `C=C(C)[C@@H]1CCC(C)=C[C@H]1c1c(O)cc(CCCCC)c(C(=O)O)c1O` [CBDA, Cannabidiolic acid], the “short-term memory (discrimination index)” value with VPA rats (CBDA 20 mg/kg/day i.p., female VPA rats) was “able to reverse the short-term memory deficit”; with VPA rats (CBDA 2 and 20 mg/kg/day i.p., male VPA rats), “completely and significantly reversed the short-term memory deficit”. The “recognition memory per se” value in the test with VPA rats (CBDA given to vehicle-treated (non VPA) rats) was “without affecting per se recognition memory”. Moreover, the “short-term memory in the NOR test” value in the test on MeCP2 KO mice (MeCP2 KO mice, CBDA 2 and 20 mg/kg i.p., each time point (PND 41, 56, 66), 30 min inter-trial interval, FIG. 10) is given as “reverted the cognitive impairment in short-term memory”. Besides, the “long-term memory in the NOR test” value in the test with MeCP2 KO mice (MeCP2 KO mice, both doses of CBDA (2 and 20 mg/kg i.p.), 24 hours inter-trial interval, FIG. 11) is reported as “counteract the cognitive impairment in long-term memory”. For the same molecule, the “short-term recognition memory in the NOR test” value in the test with MeCP2 KO mice (WT littermates, CBDA 2 and 20 mg/kg i.p., FIG. 10) is “without affecting recognition memory”. The “long-term recognition memory in the NOR test” value in the test on MeCP2 KO mice (WT littermates, both doses of CBDA, FIG. 11) is “without affecting recognition memory”. Besides, in the test with Ube3am-/p+ (AS) mice, the discrimination index entry is “increased the discrimination index”.
